What all share (format): binding
Experiment [1] concerns bromodomains. Kind of experiment: Bromodomain profiling (BROMOscan), summary over the panel. The conditions noted are these: compared to the compound of formula (23); bromodomains of Table 3. On the procedure:
Bromodomain profiling was carried out on the basis of BROMOscan™. This platform accounted for the indirect determination of the dissociation constants between 19 bromodomains and the compound of formula (13), by binding competition against a reference immobilized ligand.
Compounds that bind the bromodomain prevent its binding to the immobilized ligand thus reducing the amount of protein captured. […] Hits are identified by measuring the amount of bromodomain captured in test versus control samples.
Bromodomain assays for Kd determination: T7 phage strains displaying bromodomains were grown in parallel in 24-well blocks in an E. coli host derived from the BL21 strain. E. coli were grown to log-phase and infected with T7 phage from a frozen stock (multiplicity of infection=0.4) and incubated with shaking at 32° C. until lysis (90-150 minutes). The lysates were centrifuged (5,000×g) and filtered (0.2 μm) to remove cell debris. […] Kds were determined using an 11-point 3-fold compound dilution series with one DMSO control point. […] The bromodomain concentration in the eluates was measured by qPCR.
Bromodomain assays for % Ctrl determination: T7 phage strains displaying bromodomains were grown in parallel in 24-well blocks in an E. coli host derived from the BL21 strain. […] The bromodomain concentration in the eluates was measured by qPCR.

For experiment [2], the target named is T1, BRD2(2) (Homo sapiens, UniProt P25440).
T1 construct: T7 phage strains displaying bromodomains were grown in parallel; made in house; host or cells: T7 phage grown in an E. coli host derived from the BL21 strain
T1 sequence (P25440 344-453 limits assumed): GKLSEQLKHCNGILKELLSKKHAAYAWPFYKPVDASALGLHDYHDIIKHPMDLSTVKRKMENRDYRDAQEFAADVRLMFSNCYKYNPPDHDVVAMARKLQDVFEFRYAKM
Kind of experiment: BROMOscan Kd determination BRD2(2). The protocol: (§1) Bromodomain profiling was carried out on the basis of BROMOscan™. This platform accounted for the indirect determination of the dissociation constants between 19 bromodomains and the compound of formula (13), by binding competition against a reference immobilized ligand. Compounds that bind the bromodomain prevent its binding to the immobilized ligand thus reducing the amount of protein captured. […] Hits are identified by measuring the amount of bromodomain captured in test versus control samples. Bromodomain assays for Kd determination: T7 phage strains displaying bromodomains were grown in parallel in 24-well blocks in an E. coli host derived from the BL21 strain. E. coli were grown to log-phase and infected with T7 phage from a frozen stock (multiplicity of infection=0.4) and incubated with shaking at 32° C. until lysis (90-150 minutes). The lysates were centrifuged (5,000×g) and filtered (0.2 μm) to remove cell debris. […] Kds were determined using an 11-point 3-fold compound dilution series with one DMSO control point. […] The bromodomain concentration in the eluates was measured by qPCR. […] Most Kds were determined using a compound top concentration=10,000 nM. […] Binding Constants (Kds): Binding constants (Kds) were calculated with a standard dose-response curve using the Hill equation: The Hill Slope was set to −1. […]

Experiment [3] concerns the target T2, BRD3(1) (Homo sapiens, UniProt Q15059).
T2 construct: T7 phage strains displaying bromodomains were grown in parallel; made in house; host or cells: T7 phage grown in an E. coli host derived from the BL21 strain
Kind of experiment: BROMOscan Kd determination BRD3(1). On the procedure:
as §1

For experiment [4], the target named is T3, BRD2(1) (Homo sapiens, UniProt P25440).
T3 construct: T7 phage strains displaying bromodomains were grown in parallel; made in house; host or cells: T7 phage grown in an E. coli host derived from the BL21 strain
T3 sequence (P25440 74-180 limits assumed): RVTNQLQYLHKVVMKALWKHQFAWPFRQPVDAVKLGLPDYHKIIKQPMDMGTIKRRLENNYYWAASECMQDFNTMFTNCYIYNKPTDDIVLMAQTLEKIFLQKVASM
Put plainly: BROMOscan Kd determination BRD2(1). On the procedure: as §1

For experiment [5], the target named is T4, BRD4(2) (Homo sapiens, UniProt O60885).
T4 construct: T7 phage strains displaying bromodomains were grown; host or cells: T7 phage in E. coli derived from BL21
Put plainly: BROMOscan Kd determination BRD4(2). The protocol:
as §1

Experiment [6] has as its target T5, BRD3(2) (Homo sapiens, UniProt Q15059).
T5 construct: T7 phage strains displaying bromodomains were grown in parallel; made in house; host or cells: T7 phage grown in an E. coli host derived from the BL21 strain
Kind of experiment: BROMOscan Kd determination BRD3(2). On the procedure:
as §1

The target in experiment [7] is T6, BRD8(2) (Homo sapiens, UniProt Q9H0E9).
T6 construct: T7 phage strains displaying bromodomains were grown; host or cells: T7 phage in E. coli derived from BL21
T6 sequence (Q9H0E9 1099-1207 limits assumed): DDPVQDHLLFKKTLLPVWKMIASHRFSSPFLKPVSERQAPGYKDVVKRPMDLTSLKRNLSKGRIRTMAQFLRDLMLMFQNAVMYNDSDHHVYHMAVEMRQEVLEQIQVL
Put plainly: BROMOscan Kd determination BRD8(2). On the procedure:
as §1

A value given as a limit tells only on which side of the number the result lay.

T5 sequence (Q15059 306-415 limits assumed): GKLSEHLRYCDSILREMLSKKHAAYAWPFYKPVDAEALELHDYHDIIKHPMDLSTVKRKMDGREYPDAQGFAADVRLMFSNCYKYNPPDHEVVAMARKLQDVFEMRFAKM
T2 sequence (Q15059 34-140 limits assumed): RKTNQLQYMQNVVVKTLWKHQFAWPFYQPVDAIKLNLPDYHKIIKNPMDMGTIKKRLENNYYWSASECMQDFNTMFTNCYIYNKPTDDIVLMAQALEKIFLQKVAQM

`CCCCc1[nH]c(-c2cc(N)ccc2Cl)c2c1C(=O)CCCC2` [Compound 27, 1-(5-Amino-2-chlorophenyl)-3-butyl-5,6,7,8-tetrahydrocyclohepta[c]pyrrol-4(2H)-one]: in experiment [1], the “selectivity for certain bromodomains evaluated” value is “higher selectivity for certain bromodomains”.
On to `COc1ccc(S(=O)(=O)N2CCOCC2)cc1NC(=O)c1[nH]c(C)c2c1CCCCC2=O` [Compound 13, N-(2-methoxy-5-(morpholinosulfonyl)phenyl)-3-methyl-4-oxo-2,4,5,6,7,8-hexahydrocyclohepta[c]pyrrole-1-carboxamide], for which the Kd in experiment [2] was found to be 290 nM; in experiment [3], 100 nM; in experiment [4], 45 nM; in experiment [5] it was 220 nM; in experiment [6] it was 140 nM.
As to `Cc1[nH]c(-c2cc(N)ccc2Cl)c2c1C(=O)CCCC2` [Compound 23], the Kd in experiment [2] is 200 nM; in experiment [3], 170 nM; in experiment [4] it was 130 nM; in experiment [5], 270 nM; in experiment [7] it was more than 10000 nM; in experiment [6], 330 nM.
`CCCc1[nH]c(-c2cc(N)ccc2Cl)c2c1C(=O)CCCC2` [Compound 26, 1-(5-Amino-2-chlorophenyl)-3-propyl-5,6,7,8-tetrahydrocyclohepta[c]pyrrol-4(2H)-one]: the “selectivity for certain bromodomains evaluated” value in experiment [1] is given as “higher selectivity for certain bromodomains”.

As usually defined, the Kd is the concentration at which binding is half-saturated. A lower Kd goes with a tighter complex.

Values taken from patent US20220055989A1, “CONDENSED PYRROLES AS NOVEL BROMODOMAIN INHIBITORS” (ALBERT LUDWING UNIVERSITÄT FREIBURG, priority 2018, published 2022).
